Holding throughout (assay): Bliss interaction score (quartile over a dose matrix) (fitness difference); higher = more antagonism (negative = synergy)
The test system of experiment [1] is S. pneumoniae D39V. In a few lines:
(§1)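 Fitness here means normalised growth, inferred for single drugs from the combination data. Growth was OD595 at entry into stationary phase, divided by the plate's robust no-drug mean and capped at 1. The Bliss score is observed minus expected fitness, with the expectation being the product, and its quartiles span technical, biological and donor/recipient replicates.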

Experiment [2] relates to S. aureus Newman. A digest of the protocol: as §1
Experiment [3] concerns S. aureus DSM 20231. A digest of the protocol:
as §1

For experiment [4], the system named is B. subtilis 168. A digest of the protocol: as §1
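Note: first quartile when negative (synergy) and third quartile when positive (antagonism).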

For the compound `COc1c(N2C[C@@H]3CCCN[C@@H]3C2)c(F)cc2c(=O)c(C(=O)O)cn(C3CC3)c12` [Moxifloxacin] + CN[C@H](CC(C)C)C(=O)N[C@H]1C(=O)N[C@@H](CC(N)=O)C(=O)N[C@H]2C(=O)N[C@H]3C(=O)N[C@H](C(=O)N[C@H](C(=O)O)c4cc(O)cc(O)c4-c4cc3ccc4O)[C@H](O[C@H]3C[C@](C)(N)[C@@H](O)[C@H](C)O3)c3ccc(c(Cl)c3)Oc3cc2cc(c3O[C@@H]2O[C@H](CO)[C@@H](O)[C@H](O)[C@H]2O[C@H]2C[C@](C)(NCc3ccc(-c4ccc(Cl)cc4)cc3)[C@@H](O)[C@H](C)O2)Oc2ccc(cc2Cl)[C@H]1O [Oritavancin], the Bliss interaction score in experiment [1] was -0.052; in experiment [2] it was 0.0436; in experiment [3], -0.0425; in experiment [4], 0.024.
The like results for `N[C@@H]1CONC1=O` [CycloserineD] + COc1ccc(C[C@H](N)C(=O)N[C@H]2[C@@H](O)[C@H](n3cnc4c(N(C)C)ncnc43)O[C@@H]2CO)cc1 [Puromycin] were, in that order, 0.142, 0.051, 0.0925 and 0.0439.
As for `CC(=O)OC[C@H]1O[C@@H]([S-])[C@H](OC(C)=O)[C@@H](OC(C)=O)[C@@H]1OC(C)=O.CCP(CC)CC.[Au+]` [Auranofin] + CN(C)c1cc(NC(=O)CNC(C)(C)C)c(O)c2c1C[C@H]1C[C@H]3[C@H](N(C)C)C(O)=C(C(N)=O)C(=O)[C@@]3(O)C(O)=C1C2=O [Tigecycline], the Bliss interaction score in experiment [1] is 0.0966; in experiment [2], -0.066; in experiment [3] it was -0.0332; in experiment [4], 0.0508.
For `CC(=O)OC[C@H]1O[C@@H]([S-])[C@H](OC(C)=O)[C@@H](OC(C)=O)[C@@H]1OC(C)=O.CCP(CC)CC.[Au+]` [Auranofin] + CO/N=C(\C(=O)N[C@@H]1C(=O)N2C(C(=O)O)=C(COC(C)=O)CS[C@H]12)c1csc(N)n1 [Cefotaxime], in that order: 0.0687, 0.0713, 0.0539 and -0.0473.
With `CC(=O)OC[C@H]1O[C@@H]([S-])[C@H](OC(C)=O)[C@@H](OC(C)=O)[C@@H]1OC(C)=O.CCP(CC)CC.[Au+]` [Auranofin] + CC(=O)NC[C@H]1CN(c2ccc(N3CCOCC3)c(F)c2)C(=O)O1 [Linezolid], the Bliss interaction score in experiment [1] is -0.104; in experiment [2] it was 0.067; in experiment [3] it was 0.0191; in experiment [4], -0.0379.
The like results for `O=C1CN(/N=C/c2ccc([N+](=O)[O-])o2)C(=O)N1` [Nitrofurantoin] + CN[C@H](CC(C)C)C(=O)N[C@H]1C(=O)N[C@@H](CC(N)=O)C(=O)N[C@H]2C(=O)N[C@H]3C(=O)N[C@H](C(=O)N[C@H](C(=O)O)c4cc(O)cc(O)c4-c4cc3ccc4O)[C@H](O[C@H]3C[C@](C)(N)[C@@H](O)[C@H](C)O3)c3ccc(c(Cl)c3)Oc3cc2cc(c3O[C@@H]2O[C@H](CO)[C@@H](O)[C@H](O)[C@H]2O[C@H]2C[C@](C)(NCc3ccc(-c4ccc(Cl)cc4)cc3)[C@@H](O)[C@H](C)O2)Oc2ccc(cc2Cl)[C@H]1O [Oritavancin] were, in that order, -0.0352, -0.118, -0.0379 and 0.0189.
In the case of `CCC[C@@H]1C[C@@H](C(=O)N[C@@H]([C@H]2O[C@H](SC)[C@H](O)[C@@H](O)[C@H]2O)[C@@H](C)O)N(C)C1` [Lincomycin] + CC[C@H]1OC(=O)[C@H](C)C(=O)[C@H](C)[C@@H](O[C@@H]2O[C@H](C)C[C@H](N(C)C)[C@H]2O)[C@](C)(OC)C[C@@H](C)C(=O)[C@H](C)[C@H]2N(CCCCn3cnc(-c4cccnc4)c3)C(=O)O[C@]12C [Telithromycin], the Bliss interaction score in experiment [1] was -0.171; in experiment [2] it was -0.0488; in experiment [3] it was -0.053; in experiment [4], 0.091.
As to `CCC[C@@H]1C[C@@H](C(=O)N[C@@H]([C@H]2O[C@H](SC)[C@H](O)[C@@H](O)[C@H]2O)[C@@H](C)O)N(C)C1` [Lincomycin] + CO[C@@]12[C@H](COC(N)=O)C3=C(C(=O)C(C)=C(N)C3=O)N1C[C@@H]1N[C@@H]12 [MitomycinC], the Bliss interaction score was -0.0879 in experiment [1], -0.0572 in experiment [2], -0.0874 in experiment [3] and 0.0735 in experiment [4].
In the case of `O=C(O[C@@H]1Cc2c(O)cc(O)cc2O[C@@H]1c1cc(O)c(O)c(O)c1)c1cc(O)c(O)c(O)c1` [EGCG] + CC[C@H]1OC(=O)[C@H](C)C(=O)[C@H](C)[C@@H](O[C@@H]2O[C@H](C)C[C@H](N(C)C)[C@H]2O)[C@](C)(OC)C[C@@H](C)C(=O)[C@H](C)[C@H]2N(CCCCn3cnc(-c4cccnc4)c3)C(=O)O[C@]12C [Telithromycin], the Bliss interaction score was 0.0892 in experiment [1], 0.0859 in experiment [2], -0.079 in experiment [3] and 0.0403 in experiment [4].
`CC[C@H]1OC(=O)[C@H](C)[C@@H](O[C@H]2C[C@@](C)(OC)[C@@H](O)[C@H](C)O2)[C@H](C)[C@@H](O[C@@H]2O[C@H](C)C[C@H](N(C)C)[C@H]2O)[C@](C)(OC)C[C@@H](C)C(=O)[C@H](C)[C@@H](O)[C@]1(C)O` [Clarithromycin] + CC(=O)O[C@H]1C[C@@]2(C)[C@@H](C[C@@H](O)[C@H]3[C@@]4(C)CC[C@@H](O)[C@@H](C)[C@@H]4CC[C@@]32C)/C1=C(\CCC=C(C)C)C(=O)O [Fusidic acid]: the Bliss interaction score in experiment [1] was -0.0728; in experiment [2] it was 0.0229; in experiment [3], 0.0257; in experiment [4], -0.059.
The like results for `CC(=O)OC[C@H]1O[C@@H]([S-])[C@H](OC(C)=O)[C@@H](OC(C)=O)[C@@H]1OC(C)=O.CCP(CC)CC.[Au+]` [Auranofin] + CN(N=O)C(=O)N[C@@H](C=O)[C@@H](O)[C@H](O)[C@H](O)CO [Streptozotocin] were, in that order, 0.105, 0.0723, -0.0317 and 0.0355.
In the case of `CC(=O)OC[C@H]1O[C@@H]([S-])[C@H](OC(C)=O)[C@@H](OC(C)=O)[C@@H]1OC(C)=O.CCP(CC)CC.[Au+]` [Auranofin] + CC[C@H](C)[C@H](N)C1=N[C@H](C(=O)N[C@@H](CC(C)C)C(=O)N[C@H](CCC(=O)O)C(=O)N[C@H](C(=O)N[C@H]2CCCCNC(=O)[C@H](CC(N)=O)NC(=O)[C@@H](CC(=O)O)NC(=O)[C@H](Cc3cnc[nH]3)NC(=O)[C@@H](Cc3ccccc3)NC(=O)[C@H]([C@@H](C)CC)NC(=O)[C@@H](CCCN)NC2=O)[C@@H](C)CC)CS1 [Bacitracin], the Bliss interaction score in experiment [1] (main component drawn) is -0.0398; in experiment [2] (main component drawn), 0.133; in experiment [3] (main component drawn) it was 0.0174; in experiment [4] (main component drawn), 0.165.
As for `CC[C@H]1OC(=O)[C@H](C)[C@@H](O[C@H]2C[C@@](C)(OC)[C@@H](O)[C@H](C)O2)[C@H](C)[C@@H](O[C@@H]2O[C@H](C)C[C@H](N(C)C)[C@H]2O)[C@](C)(OC)C[C@@H](C)C(=O)[C@H](C)[C@@H](O)[C@]1(C)O` [Clarithromycin] + CC[C@H]1OC(=O)[C@H](C)C(=O)[C@H](C)[C@@H](O[C@@H]2O[C@H](C)C[C@H](N(C)C)[C@H]2O)[C@](C)(OC)C[C@@H](C)C(=O)[C@H](C)[C@H]2N(CCCCn3cnc(-c4cccnc4)c3)C(=O)O[C@]12C [Telithromycin], the Bliss interaction score in experiment [1] is 0.056; in experiment [2] it was -0.0507; in experiment [3] it was -0.0599; in experiment [4], 0.0309.
For `CCC[C@@H]1C[C@@H](C(=O)N[C@@H]([C@H]2O[C@H](SC)[C@H](O)[C@@H](O)[C@H]2O)[C@H](C)Cl)N(C)C1` [Clindamycin] + CC(=O)O[C@H]1C[C@@]2(C)[C@@H](C[C@@H](O)[C@H]3[C@@]4(C)CC[C@@H](O)[C@@H](C)[C@@H]4CC[C@@]32C)/C1=C(\CCC=C(C)C)C(=O)O [Fusidic acid], in that order: 0.0662, 0.0307, 0.0254 and 0.0418.
The like results for `CC(=O)OC[C@H]1O[C@@H]([S-])[C@H](OC(C)=O)[C@@H](OC(C)=O)[C@@H]1OC(C)=O.CCP(CC)CC.[Au+]` [Auranofin] + Clc1ccc(COC(Cn2ccnc2)c2ccc(Cl)cc2Cl)c(Cl)c1 [Miconazole] were, in that order, 0.086, 0.0208, -0.0279 and 0.0318.
For `CC(=O)OC[C@H]1O[C@@H]([S-])[C@H](OC(C)=O)[C@@H](OC(C)=O)[C@@H]1OC(C)=O.CCP(CC)CC.[Au+]` [Auranofin] + CN(C)[C@@H]1C(O)=C(C(N)=O)C(=O)[C@@]2(O)C(O)=C3C(=O)c4c(O)ccc(Cl)c4[C@@](C)(O)[C@H]3C[C@@H]12 [Clortetracycline], in that order: 0.0541, 0.0623, 0.0317 and 0.0659.
As for `CC(=O)OC[C@H]1O[C@@H]([S-])[C@H](OC(C)=O)[C@@H](OC(C)=O)[C@@H]1OC(C)=O.CCP(CC)CC.[Au+]` [Auranofin] + CO/N=C(\C(=O)N[C@@H]1C(=O)N2C(C(=O)O)=C(COC(N)=O)CS[C@H]12)c1ccco1 [Cefuroxime], the Bliss interaction score in experiment [1] was 0.0434; in experiment [2] it was 0.0517; in experiment [3], -0.239; in experiment [4], -0.0911.

These data come from the supplement of paper PMC10627819.
